In PubChem BioAssay (NCI):
“And” between values parts separate entries of the source, which are not always exact repeats. Equal values may be shown once.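 Tested at 5 concentrations; 48 h exposure; 96-well plates; endpoints linearly interpolated, else capped at highest concentration. The concentration for 50% growth inhibition is given as GI50. TGI: concentration producing complete growth inhibition.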

Columns and labels:
Assay in all cases: NCI anticancer screen, dose series, 48 h
A498 renal = system: A498 renal
CAKI-1 renal = system: CAKI-1 renal
IGROV1 ovarian = system: IGROV1 ovarian
K-562 leukemia = system: K-562 leukemia
MOLT-4 leukemia = system: MOLT-4 leukemia
SK-MEL-5 melanoma = system: SK-MEL-5 melanoma
SNB-19 CNS = system: SNB-19 CNS
UACC-62 melanoma = system: UACC-62 melanoma
BT-549 breast = system: BT-549 breast
MDA-MB-435 = system: MDA-MB-435

| Structure (SMILES) | TGI (A498 renal) [µM] | TGI (CAKI-1 renal) [µM] | TGI (IGROV1 ovarian) | TGI (K-562 leukemia) [µM] | TGI (MOLT-4 leukemia) [µM] | TGI (SK-MEL-5 melanoma) [µM] | TGI (SNB-19 CNS) | TGI (UACC-62 melanoma) [µM] | TGI (BT-549 breast) [µM] | TGI (MDA-MB-435) [µM] | GI50 (A498 renal) [µM] | GI50 (MOLT-4 leukemia) [µM] | GI50 (SNB-19 CNS) [µM] |
| --- | --- | --- | --- | --- | --- | --- | --- | --- | --- | --- | --- | --- | --- |
| CC12O[C@H](c3ccccc3)[C@H](c3ccccc3)N1C(=O)C1(C(=O)OCc3ccccc3)CC12 (stereo partly specified) | > 100 | > 100 | > 100 µM | > 100 | 63.2 | > 100 | > 100 µM | > 100 | – | – | – | – | – |
| Cc1cccc(-c2cc(=O)c3ccc(C)nc3[nH]2)c1 | > 51.1 | > 100 | > 100 µM | > 100 | > 80.6 | 15.4 | > 100 µM | > 100 | > 100 | – | – | – | – |
| O=[N+]([O-])CC(SCc1ccccc1)c1ccc2c(c1)OCO2 (stereo unspecified) | 18.8 | 28.6 | 12.7 µM | 4.19 | 21.1 | 25 | 28 µM | 25.2 | – | 7.93 | – | – | – |
| COC(=O)C1=NN2c3ccccc3C(=O)OCCC2C1 (stereo unspecified) | > 100 | > 100 | > 100 µM | > 100 | > 100 | > 100 | – | > 100 | > 100 | > 100 | – | – | – |
| N#Cc1c(=O)c2cc([N+](=O)[O-])ccc2n2c1[nH]c1ccccc12 | > 93.1 | > 92 | > 83.7 µM | > 23.4 | > 76.1 | 28.3 | > 72.9 µM | > 54.1 | > 69.5 | > 79.9 | – | – | – |
| CCN1/C(=C/c2ccc3ccccc3[n+]2CC)C=Cc2ccccc21 | 15 | 56.8 | 16.4 µM | > 100 | > 33.9 | 3.77 | 27.8 µM | 9.22 | 24 | 1.67 | – | – | – |
| CCC(=O)OCc1ccc2oc(=O)c(C(=O)Oc3cncc(Cl)c3)cc2c1 | – | > 100 | > 100 µM | 77.9 | > 100 | > 100 | > 100 µM | > 100 | > 100 | > 100 | – | – | – |
| C[n+]1c2ccccc2c(CNC(CCC(N)=O)C(=O)O)c2ccccc21 (stereo unspecified) | 6.93 | 7.53 | 13.4 µM | 6.51 | 10 | 10.5 | 16.3 µM | 6.19 | 10.1 | 9.95 | – | – | – |
| CC(=O)Oc1ccn2nc(C)c(Br)c2c1Br | 72.9 | 21.7 | > 72.2 µM | 50.1 | 34.9 | 31.7 | > 100 µM | 37.5 | 60.2 | 35.2 | – | – | – |
| N=c1c2c3n(c4c(=O)n(-c5ccccc5)c(=S)n(c(=O)n1-c1ccccc1)c24)CCCCC3 | > 100 | > 100 | > 100 µM | – | > 71.6 | > 100 | > 100 µM | > 100 | > 100 | > 100 | – | – | – |
| Cc1ccc(NC(=O)CC(=O)n2nc(-c3ccccc3)c(N=Nc3ccc(Cl)cc3)c2-c2ccccc2)cc1 | > 100 | > 100 | > 100 µM | 47.1 | > 100 | > 100 | > 100 µM | > 100 | – | – | – | – | – |
| O=[N+]([O-])c1ccc(Cl)cc1C1ON=C(c2ccccc2)N1C12CC3CC(CC(C3)C1)C2 (stereo unspecified) | > 100 | > 100 | > 100 µM | > 100 | > 100 | > 100 | > 100 µM | > 100 | – | > 100 | – | – | – |
| OC(c1cccs1)c1cc2ccccc2s1 (stereo unspecified) | – | > 10 | > 10 µM | > 10 | > 10 | > 10 | > 10 µM | > 10 | – | > 10 | – | – | – |
| Cc1cc(N(CCC#N)CCC#N)ccc1/C=C(\NC(=O)/C=C/c1ccccc1)NC(=O)Nc1ccc(Cl)cc1 | > 100 | > 100 | > 100 µM | > 100 | > 100 | > 100 | > 100 µM | > 100 | – | – | – | – | – |
| C[C@@]12CC[C@H]3[C@@H]4CCC(=O)N[C@@]4(C)CC[C@@H]3[C@@]1(C)CC[C@H](OC(=O)Cc1ccc(N(CCCl)CCCl)cc1)C2 | 32.8 | 30.5 | 31.3 µM | 48.7 | 38.8 | 27.1 | – | 30.5 | – | – | – | – | – |
| c1ccc2c(c1)CCc1c-2n(CCN2CCCCC2)c2ccccc12 | – | 52.3 | 27.3 µM | 30.9 | 44.8 | 12.9 | 94.5 µM | 29.1 | 42.1 | 74.4 | – | – | – |
| COC(=O)NCCc1[nH]nc2c1C(=O)C=C(OC)C2=O | – | 45.5 | 34.9 µM | 37.3 | 46.4 | 28.9 | 45.6 µM | 48.7 | – | 27.7 | – | – | – |
| O=[N+]([O-])c1ccc(NC2OCC(O)C(O)C2O)cc1 (stereo unspecified) | > 100 | > 100 | > 100 µM | > 100 | > 100 | > 100 | > 100 µM | > 100 | – | – | – | – | – |
| OC1C(O)C(O)C(O)C(O)C1O (stereo unspecified) | > 1000 | – | > 1000 µM | > 1000 | 916 | > 1000 | > 1000 µM | > 1000 | > 1000 | > 1000 | – | – | – |
| Cc1cc2c(c3oc(C(O)(CO)C4CO4)cc(=O)c13)C(=O)c1c(O)cccc1C2=O (stereo unspecified) | 0.00403 | 0.0036 | 0.0019 µM and 0.00294 µM | – | > 37.5 | – | 0.00442 µM and 0.00494 µM | 0.00293 | 0.000438 | 0.0052 | 0.00375 | > 37.5 | 0.000231 |
| NC1CC2C3CCC2C1C3=O (stereo unspecified) | > 100 | > 100 | > 100 µM | > 100 | > 100 | > 100 | > 100 µM | > 100 | – | > 100 | – | – | – |
| O=C1CN(c2ccc(Cl)cc2)C(=O)CN1CCN1CC(=O)N(c2ccc(Cl)cc2)CC1=O | > 100 | > 100 | > 100 µM | – | > 100 | > 100 | > 100 µM | > 100 | > 100 | > 100 | – | – | – |
